One experiment concerns Human PMNs. Put plainly: LTB4-induced PMN aggregation. The experiment is classed as cell-based. As to conditions: in vitro, 20 nM LTB4, read-out: inhibits LTB4 -induced PMN aggregation, IC50. The procedure: Neutrophils (PMN's) are prepared from uncoagulated human venous blood. Blood is dispersed into 50 ml polypropylene tubes containing 15 ml of HESPAN (Dupont, Wilmington, Del.), and mixed. Tubes are allowed to stand at room temperature for 40 minutes until most of the red blood cells sediment. The supernatants are removed and centrifuged for 5-10 min at 400×g. The remaining pellets are diluted in 70 ml of Phosphate Buffered Saline without calcium and magnesium (PBS without metals; GIBCO, Grand Island, N.Y.) and 35 ml of this suspension are placed in each of two polypropylene tubes containing 15 ml of Ficoll-Paque (Sigma, St. Louis, Mo.). Gradients are then centrifuged for 15 minutes at 420×g. […]
Human PMNs are prepared as previously described. Neutrophil aggregation is assessed by monitoring the intensity of light passing through a suspension of cells (Craddock et al., J. Clin. Invest. 60: 260-264, 1977) using a Payton dual channel aggregometer (model 300BD). […] 5 μl of 2 μM LTB4 in PBS (20 nM final concentration) are added and the aggregation response monitored for 3-5 min, the time required for optimal response, Compounds are solubilized in 0.01M DMSO and then diluted in PBS to 0.001 M. 5 μl of compound solution is added along with cytochalasin B and cells as described above. Following the preincubation period 5 μl of 2 μM LTB4 are added and aggregation is measured. […]

The test system of experiment [1] is LTB4 -induced neutropenia. Put plainly: LTB4-induced neutropenia in the rat. It counts as in vivo. As to conditions: dose of about 0.5 mg./Kg p.o., determined at four hours after administration. As to the method:
LTB4 -Induced Neutropenia in the Rat
Male Sprague Dawley rats (crl: CDBR; Charles River, Wilmington, Mass.) (250-300 grams) are fasted overnight prior to the experiment. At least six animals are used per treatment group. Rats are given vehicle or compound either intravenously or orally and at intervals after dosing, neutrophil counts are determined from blood samples obtained just prior to and 20 seconds after intravenous infusion of 200 ng LTB4. In studies where compound is administered orally, drug is given by gavage. When drug is administered intravenously, rats are first anesthetized with 50 mg/kg i.p. of Sodium Pentabarbital. The jugular vein is exposed and cleaned of the surrounding tissue. At 3, 4 or 18 hours following administration of compound or vehicle by either route, blood samples are taken (0.3 ml of blood in 1.5 ml polypropylene microcentrifuge tube containing 0.01 mi 7.5% EDTA). Blood neutrophil counts are determined using a Technicon H-1 hematology instrument. Antagonism of the LTB4 -induced neutropenia response for the compounds tested is calculated.

The IC50 is the midpoint of a concentration-inhibition curve. Regarding `CC(C)N(C(=O)c1ccc(OCCCCCOc2ccc(C(N)=NO)cc2)cc1O)C(C)C` [Example 1, 4-[5-[4-[amino(hydroxyimino)methyl]phenoxy]pentyloxy]-2-hydroxy-N,N-bis(1-methylethyl)benzamide], the IC50 in the experiment on Human PMNs is approximately 10 nM. For the same compound, the “inhibition of LTB4 -induced neutropenia in the rat” value in experiment [1] is “causes inhibition”.

The record behind these values is patent publication US5455274A, “Hydroxyamidine derivatives” (Ciba-Geigy Corporation, priority 1992, dated 1995).
